# Patent US20160201132A1, “GENE EXPRESSION BIOMARKERS OF LAQUINIMOD RESPONSIVENESS” (Teva Pharmaceutical Industries Ltd., priority 2013, published 2016)
# System: PBMC of RRMS patients
# Test: Gene expression microarray analysis (HG-U133A-2) of PBMC from RRMS patients treated with LAQ, ancillary study to ALLEGRO
# Type: in vivo, human
# Settings: for Fold-Change (1.0 vs. 0.0): one month of treatment
# Description: The goal of this ancillary study was to characterize gene expression changes and corresponding biological mechanisms induced in PBMC of RRMS patients by LAQ treatment. According to ALLEGRO clinical trial inclusion criteria, 25 patients were randomly assigned to receive LAQ (n=13, age 38.8±2.3 years, female/male ratio: 8/5) or placebo (n=12, age 37.2±3.4 years, female/male ratio: 8/4).
# Peripheral blood samples were obtained from RRMS patients at baseline before start of LAQ treatment or placebo, after 0, 1, 6 and 24 month of treatment (visit 0, 1, 6 and 7 according to ALLEGRO clinical trial protocol correspondently) for gene microarray analysis.
# Briefly, 1) Peripheral blood mononuclear cells (PBMC) were obtained from RRMS patients that participated in ALLEGRO and were treated daily with 0.6 mg LAQ or placebo. PBMC were subjected for gene expression analysis (HU-133A-2-Affymatrix arrays) at baseline and at 1 and 6 months of LAQ treatment; 2) Data was analyzed by Partek Genomics Solution software. Most informative genes (MIGs) were defined as those that differentiated between groups with p<0.01. Gene functional annotation, enrichment and pathway analysis were performed by Ingenuity software. For each time point, genes that changed in placebo group were excluded from further analysis; and 3) Verification of LAQ related mechanism was performed by Western blot.
# PBMC were extracted from 15 ml peripheral blood, separated by Ficoll-Hypaque gradient. Total RNA was extracted using both Trizol (Invitrogen, USA) and Phase-Lock-Gel columns (Eppendorf, Germany) including a DNase digestion step. RNA integrity was assessed by RNA Experion automated electrophoresis system (Bio-Rad Laboratories, Hercules, Calif.).
# Probe synthesis using 3 μg total RNA, hybridization, detection, and scanning was performed according to the standard Affymetrix, Inc. USA protocols; cDNA was synthesized using the Two-Cycle cDNA Synthesis Kit (Affymetrix, Inc., USA), and in-vitro transcription performed with the GeneChip IVT Labeling Kit (Affymetrix, Inc., USA). The biotin-labeled IVT-RNA was hybridized to HG-U133A-2 arrays containing 18,400 gene transcripts, each corresponding to 14,500 well-annotated human genes, washed in a GeneChip Fluidics Station 450 (Hewlett Packard, USA, GeneArray-™ scanner G2500A) and scanned according to the manufacturer's protocol (Affymetrix, Inc., USA).
# Data analysis was performed on Partek Genomics Solution software (www.partek.com; Partek Incorporated, St. Louis, Mo.). Expression values were computed from raw CEL files by applying the Robust Multi-Chip Average (RMA) background correction algorithm. RMA correction included: 1) values background correction; 2) quintile normalization; 3) log 2 transformation; and 4) median polish summarization. The ANOVA, Repeated Measures and correlation analysis implicated in Partek software ware applied to evaluate LAQ effects. Most informative genes MIGs were defined as those that differentiated between experimental groups with p<0.01. All p-values were calculated for False Discovery Rate (FDR) multiple test correction at p=0.05.
# Additionally, significance of individual genes was tested by parametric T-test and non parametric Mann-Whitney test using Bootstrapping approach based on repeated permutations of the data with 5% FDR for multiple testing.
# Gene functional annotation, enrichment, and pathway analyses to identify the leading biological pathways that operated under LAQ treatment were performed by Ingenuity Pathways Analysis software (www.ingenuity.com).
# ANOVA analysis was used to compare PBMC gene expression after 1, 6 or 24 month of LAQ treatment with baseline gene expression.
# For each time point inventors performed analysis source of variation in dataset. (FIG. 1). Age, gender and batch effects were considered as confounders regarding LAQ or Placebo related changes. For each time point genes associated with Placebo effect were evaluated and excluded from further analysis. […]
# [1] = 1 month of LAQ 0.6 mg/day vs baseline
# [2] = 6 months of LAQ 0.6 mg/day vs baseline
# [3] = 1564 FDR genes, combined 6 and 24 months
compound,measurement,setting,value
"CCN(C(=O)c1c(O)c2c(Cl)cccc2n(C)c1=O)c1ccccc1 [LAQ, 5-chloro-N-ethyl-4-hydroxy-1-methyl-2-oxo-N-phenyl-1,2-dihydroquinoline-3-carboxamide]","# of genes p < 0.01 (LAQ related MIGs, ANOVA)",[1],354
same,Down regulated genes (LAQ related MIGs),[1],348
same,Up-regulated genes (LAQ related MIGs),[1],6
same,"# of genes p < 0.01 (LAQ related MIGs, ANOVA)",[2],1562
same,Down regulated genes (LAQ related MIGs),[2],1552
same,Up-regulated genes (LAQ related MIGs),[2],10
same,"p, suppression of genes related to the TGFB pathway",6 months or longer treatment,1.9*10^−2
same,"genes (n), suppression of cell migration function",[3],233
same,"genes (n), suppression of chemotaxis",[3],78
same,"p, suppression of cell migration function",[3],4.5*10^−14
same,"p, suppression of chemotaxis",[3],4.3*10^−5
same,Fold-Change (1.0 vs. 0.0),202280_at (gene symbol not given),−1.157
same,Fold-Change (1.0 vs. 0.0),ABLIM3 205730_s_at,−1.542
same,Fold-Change (1.0 vs. 0.0),ALDOB 204704_s_at,−1.119
same,Fold-Change (1.0 vs. 0.0),APBA2 209871_s_at,−1.163
same,Fold-Change (1.0 vs. 0.0),ARHGEF10 215139_at,−1.176
same,Fold-Change (1.0 vs. 0.0),ARMCX6 /// LOC653354 214749_s_at,−1.178
same,Fold-Change (1.0 vs. 0.0),ASAP2 206414_s_at,−1.773
same,Fold-Change (1.0 vs. 0.0),C1orf116 219476_at,−1.222
same,Fold-Change (1.0 vs. 0.0),CA5A 207421_at,−1.243
same,Fold-Change (1.0 vs. 0.0),CALD1 201617_x_at,−1.326
same,Fold-Change (1.0 vs. 0.0),CALD1 212077_at,−1.896
same,Fold-Change (1.0 vs. 0.0),CAPRIN1 200722_s_at,−1.157
same,Fold-Change (1.0 vs. 0.0),CCDC93 209689_at,−1.133
same,Fold-Change (1.0 vs. 0.0),CD84 211190_x_at,−1.166
same,Fold-Change (1.0 vs. 0.0),CDC14B 208022_s_at,−1.4133
same,Fold-Change (1.0 vs. 0.0),CLDN5 204482_at,−1.364
same,Fold-Change (1.0 vs. 0.0),CTDSPL 201905_s_at,−1.468
same,Fold-Change (1.0 vs. 0.0),DLG4 210684_s_at,−1.187
same,Fold-Change (1.0 vs. 0.0),DNM3 209839_at,−1.8
same,Fold-Change (1.0 vs. 0.0),FABP7 205030_at,−1.176
same,Fold-Change (1.0 vs. 0.0),FAM12B 220759_at,−1.1468
same,Fold-Change (1.0 vs. 0.0),FBXO7 201178_at,−1.135
same,Fold-Change (1.0 vs. 0.0),FBXW7 218751_s_at,−1.112
same,Fold-Change (1.0 vs. 0.0),FSTL1 208782_at,−1.694
same,Fold-Change (1.0 vs. 0.0),GNAS 200780_x_at,−1.158
same,Fold-Change (1.0 vs. 0.0),GNAS 200981_x_at,−1.1585
same,Fold-Change (1.0 vs. 0.0),GNAS 212273_x_at,−1.156
same,Fold-Change (1.0 vs. 0.0),GNAS 214548_x_at,−1.159
same,Fold-Change (1.0 vs. 0.0),GNB5 207124_s_at,−1.1663
same,Fold-Change (1.0 vs. 0.0),GNB5 211871_x_at,−1.159
same,Fold-Change (1.0 vs. 0.0),GP1BA 207389_at,−1.548
same,Fold-Change (1.0 vs. 0.0),GPRASP1 204793_at,−1.16
same,Fold-Change (1.0 vs. 0.0),GRAP2 208406_s_at,−1.394
same,Fold-Change (1.0 vs. 0.0),GSPT1 217595_at,−1.116
same,Fold-Change (1.0 vs. 0.0),GUCY1B3 203817_at,−1.73
same,Fold-Change (1.0 vs. 0.0),H2BFS /// HIST1H2BK 208579_x_at,−1.481
same,Fold-Change (1.0 vs. 0.0),HIST1H2AC 215071_s_at,−1.628
same,Fold-Change (1.0 vs. 0.0),HIST1H2AJ 208583_x_at,−1.278
same,Fold-Change (1.0 vs. 0.0),HIST1H2BK 209806_at,−1.418
same,Fold-Change (1.0 vs. 0.0),HLA-E 217456_x_at,−1.062
same,Fold-Change (1.0 vs. 0.0),IGF2BP3 203819_s_at,−1.72
same,Fold-Change (1.0 vs. 0.0),ITGB1 211945_s_at,−1.17
same,Fold-Change (1.0 vs. 0.0),ITGB3 204628_s_at,−1.579
same,Fold-Change (1.0 vs. 0.0),ITGB3 215240_at,−1.589
same,Fold-Change (1.0 vs. 0.0),ITGB5 201125_s_at,−1.713
same,Fold-Change (1.0 vs. 0.0),LIMS1 207198_s_at,−1.445
same,Fold-Change (1.0 vs. 0.0),LIMS1 212687_at,−1.3332
same,Fold-Change (1.0 vs. 0.0),LOC150776 /// SMPD4 207856_s_at,−1.0672
same,Fold-Change (1.0 vs. 0.0),LOC157627 214839_at,1.326
same,Fold-Change (1.0 vs. 0.0),LUC7L2 220099_s_at,−1.155
